Reference: EP1698638A1, “Lipopeptides having pharmaceutical activity” (Technische Universität Berlin, priority 2005, dated 2006)

Experiments:
[1] = tested on: L 929 (murine aneuploid fibrosarcoma) cells; experiment: cytotoxicity assay, IC-Tox50 Kit, resazurin (2nd test); type: cell-based; conditions: down to a concentration of 1.0 µg/mL; decrease of resazurin at 595 nm, 24 h
Experimental: 2nd test Cytotoxicity assays were further performed using the IC-Tox50 Kit from CCS (Cell Culture Service, Hamburg) according to the manufacturers recommendations in 96-well microtitre plates. L 929 (murine aneuploid fibrosarcoma) cells were used and the activity was followed by recording the decrease of the blue pigment resazurin at 595 nm. Down to a concentration of 1.0 µg/mL a hundred percent inhibition of cell activity was determined for hassallidin A and hassallidin B. The cytotoxity assays using deposited L 929 cells were prepared as follows: • Each well contained 140 µl RPMI-1640 medium, 100 µl resazurin solution and 10 µl test solution of hassallidin A or hassallidin B at different concentrations. To obtain 10 µl test solution, 1 µl / 2 µl / 3 µl or 4µl of a 50% methanolic stock solution (25 µg/ 100 µl) were mixed with 9 µl / 8 µl / 7 µl or 6 µl 50% MeOH. For unhindered cell activity, 10 µl 50% MeOH solution was used as test solution. Solutions of 1µg Na2SeO3 / 10 µl (50% MeOH) and 2 µg Na2SeO3 /10 µl (50% MeOH) were used as positive control. • The absorption difference (t0h-t24h) of resazurin metabolised by L 929 cells is graphically represented in figure 6.

Candida glabrata = experiment: disk diffusion assay on malt agar plates; type: cell-based; conditions: 10 µg in 30 µL 50% MeOH per disk
Ustilago maydis = experiment: disk diffusion assay on malt agar plates; type: cell-based; conditions: 10 µg in 30 µL 50% MeOH per disk
Penicillium sp. = experiment: disk diffusion assay on malt agar plates; type: cell-based; conditions: 10 µg in 30 µL 50% MeOH per disk
Fusarium sambucium = experiment: disk diffusion assay on malt agar plates; type: cell-based; conditions: 10 µg in 30 µL 50% MeOH per disk
Aspergillus fumigatus = experiment: disk diffusion assay on malt agar plates; type: cell-based; conditions: 10 µg in 30 µL 50% MeOH per disk
Aspergillus niger = experiment: disk diffusion assay on malt agar plates; type: cell-based; conditions: 10 µg in 30 µL 50% MeOH per disk
Candida albicans = experiment: disk diffusion assay on malt agar plates; type: cell-based; conditions: 10 µg in 30 µL 50% MeOH per disk
Candida albicans SC 5314 = experiment: microdilution assay (NCCLS), inhibitory concentration (IC); type: cell-based
Experimental: (§1) More specifically, a determination of inhibitory concentration (IC) of hassallidin A and hassallidin B for various fungi, Candida species and Candida strains were performed with different media (RPMI-1640 or SAB or AM3) in a microdilution assay by following the guidelines in NCCLS documents M^38-P^25 and M27-A2^26 carried out as follows Each substance was dissolved with 100% dimethyl sulfoxide (Serva, Heidelberg, Germany) to give a stock solution of 3.2 mg/ml followed by nine log2 dilution steps with the solvent. This served as a 100-fold concentrated dilution series ranging from 1.6 mg/ml to 0.003 mg/ml of the test substance. The final concentration of the test substance was 16 µg/ml to 0.031 µg/ml.
(§2) Therefore the 100-fold concentrated dilution series (with 100% DMSO) was diluted to the final concentration by two dilution steps: • (1) Each concentration of the 100-fold concentrated substance was diluted with test medium for 1:50 (for ex.: adding of 13 µl of the test substance to 637 µl test medium). • (2) 100 µl of each 1:50 diluted concentration was filled in a row of wells of a microtitre plate. One well was without the substance but with the 1:50 diluted solvent serving as growth control.
(§3) A further 1:2 dilution of the antifungal was made by the inoculation of each well with 100 µl of the test organism, which was suspended in the test medium. The remaining well of the row was used for sterility control of the medium. The inoculum was strictly prepared according the NCCLS^25 guidelines, resulting in […] for Candida-species and Cryptococcus neoformans. For hyphomycetes CFU's were tenfold higher (see NCCLS). ^26 The growth of the hyphomycetes respectively the inhibition was measured by visual reading with the help of a reading mirror; scoring was done according to NCCLS :^26 score 0 corresponds to a optical clear well or an IC95 or higher, score 1 corresponds to an inhibition of 80 percent (IC80) and the score 2 of the NCCLS definition corresponds to the IC50 values in the tables. The growth of the yeasts was measured spectrophotometrically by a microplate reader (MR 5000, Dynatech laboratories) at 630 nm displaying the optical density (OD). The percent inhibition IC50, IC80 or IC95 (corresponding the scores of 2, 1 and 0) was calculated by the following formula: (100−[(ODof the well−ODof the medium)] × 100)/((ODof the growth control−ODof the medium).) [formula] Table 3. Test series for determining IC values of hassallidin A and B in different media using Candida albicans and Candida krusei. The IC values were measured after 24 h and 48 h at 30 °C.

ATCC 6258 (QC) = experiment: as above; type: cell-based, Candida krusei
Experimental: as §1, §2, §3

[2] = Table 3 series, AM3, 30 °C, 24h
[3] = Table 3 series, AM3, 30 °C, 48h
[4] = Table 3 series, RPMI, 30 °C, 24h
[5] = Table 3 series, RPMI, 30 °C, 48h
[6] = Table 3 series, SAB, 30 °C, 24h
[7] = Table 3 series, SAB, 30 °C, 48h
[8] = Table 4 series, RPMI-1640 medium, 35°C/24h
[9] = Table 4 series, RPMI-1640 medium, 35°C/48h
[10] = Table 4 series, RPMI-1640 medium, 30°C/24h
[11] = Table 4 series, RPMI-1640 medium, 30°C/48h

hassallidin B
inhibition of cell activity [1]: a hundred
antifungal activity in disk diffusion assay (Candida glabrata): precise antifungal activity
antifungal activity in disk diffusion assay (Ustilago maydis): precise antifungal activity
antifungal activity in disk diffusion assay (Penicillium sp.): precise antifungal activity
antifungal activity in disk diffusion assay (Fusarium sambucium): precise antifungal activity
antifungal activity in disk diffusion assay (Aspergillus fumigatus): precise antifungal activity
antifungal activity in disk diffusion assay (Aspergillus niger): precise antifungal activity
antifungal activity in disk diffusion assay (Candida albicans): precise antifungal activity
IC50 (Candida albicans SC 5314; [2]): 4 µg/mL
IC80 (Candida albicans SC 5314; [2]): 4 µg/mL
IC95 (Candida albicans SC 5314; [2]): 4 µg/mL
IC50 (Candida albicans SC 5314; [3]): 8 µg/mL
IC80 (Candida albicans SC 5314; [3]): 8 µg/mL
IC95 (Candida albicans SC 5314; [3]): 8 µg/mL
IC50 (Candida albicans SC 5314; [4]): 16 µg/mL
IC80 (Candida albicans SC 5314; [4]): 16 µg/mL
IC95 (Candida albicans SC 5314; [4]): 16 µg/mL
IC50 (Candida albicans SC 5314; [5]): 16 µg/mL
IC80 (Candida albicans SC 5314; [5]): 16 µg/mL
IC95 (Candida albicans SC 5314; [5]): 16 µg/mL
IC50 (Candida albicans SC 5314; [6]): 8 µg/mL
IC80 (Candida albicans SC 5314; [6]): 8 µg/mL
IC95 (Candida albicans SC 5314; [6]): 8 µg/mL
IC50 (Candida albicans SC 5314; [7]): 8 µg/mL
IC80 (Candida albicans SC 5314; [7]): 8 µg/mL
IC95 (Candida albicans SC 5314; [7]): 8 µg/mL
IC50 (ATCC 6258 (QC); [4]): 16 µg/mL
IC80 (ATCC 6258 (QC); [4]): 16 µg/mL
IC95 (ATCC 6258 (QC); [4]): 16 µg/mL
IC50 (ATCC 6258 (QC); [5]): 16 µg/mL
IC80 (ATCC 6258 (QC); [5]): 16 µg/mL
IC95 (ATCC 6258 (QC); [5]): 16 µg/mL

hassallidin A
inhibition of cell activity [1]: a hundred
antifungal activity in disk diffusion assay (Candida glabrata): precise antifungal activity
antifungal activity in disk diffusion assay (Ustilago maydis): precise antifungal activity
antifungal activity in disk diffusion assay (Penicillium sp.): precise antifungal activity
antifungal activity in disk diffusion assay (Fusarium sambucium): precise antifungal activity
antifungal activity in disk diffusion assay (Aspergillus fumigatus): precise antifungal activity
antifungal activity in disk diffusion assay (Aspergillus niger): precise antifungal activity
antifungal activity in disk diffusion assay (Candida albicans): precise antifungal activity
IC50 (Candida albicans SC 5314; [2]): 4 µg/mL
IC80 (Candida albicans SC 5314; [2]): 4 µg/mL
IC95 (Candida albicans SC 5314; [2]): 4 µg/mL
IC50 (Candida albicans SC 5314; [3]): 8 µg/mL
IC80 (Candida albicans SC 5314; [3]): 8 µg/mL
IC95 (Candida albicans SC 5314; [3]): 8 µg/mL
IC50 (Candida albicans SC 5314; [4]): 16 µg/mL
IC80 (Candida albicans SC 5314; [4]): 16 µg/mL
IC95 (Candida albicans SC 5314; [4]): 16 µg/mL
IC50 (Candida albicans SC 5314; [5]): 16 µg/mL
IC80 (Candida albicans SC 5314; [5]): 16 µg/mL
IC95 (Candida albicans SC 5314; [5]): 16 µg/mL
IC50 (Candida albicans SC 5314; [6]): 4 µg/mL
IC80 (Candida albicans SC 5314; [6]): 4 µg/mL
IC95 (Candida albicans SC 5314; [6]): 4 µg/mL
IC50 (Candida albicans SC 5314; [7]): 8 µg/mL
IC80 (Candida albicans SC 5314; [7]): 8 µg/mL
IC95 (Candida albicans SC 5314; [7]): 8 µg/mL
IC50 (Candida albicans SC 5314; [8]): 8 µg/mL
IC80 (Candida albicans SC 5314; [8]): 8 µg/mL
IC95 (Candida albicans SC 5314; [8]): 8 µg/mL
IC50 (Candida albicans SC 5314; [9]): 8 µg/mL
IC80 (Candida albicans SC 5314; [9]): 8 µg/mL
IC95 (Candida albicans SC 5314; [9]): 8 µg/mL
IC50 (ATCC 6258 (QC); [4]): 16 µg/mL
IC80 (ATCC 6258 (QC); [4]): 16 µg/mL
IC95 (ATCC 6258 (QC); [4]): 16 µg/mL
IC50 (ATCC 6258 (QC); [5]): 16 µg/mL
IC80 (ATCC 6258 (QC); [5]): 16 µg/mL
IC95 (ATCC 6258 (QC); [5]): 16 µg/mL
IC50 (ATCC 6258 (QC); [10]): 8 µg/mL
IC80 (ATCC 6258 (QC); [10]): 8 µg/mL
IC95 (ATCC 6258 (QC); [10]): 8 µg/mL
IC50 (ATCC 6258 (QC); [11]): 8 µg/mL
IC80 (ATCC 6258 (QC); [11]): 8 µg/mL
IC95 (ATCC 6258 (QC); [11]): 8 µg/mL
IC50 (ATCC 6258 (QC); [8]): 8 µg/mL
IC50 (ATCC 6258 (QC); [9]): 16 µg/mL
IC95 (ATCC 6258 (QC); [9]): 16 µg/mL
